These results are taken from US12295970B2, “Imidazoquinoline compounds and prodrugs thereof” (UNIVERSITY OF KANSAS, priority 2019, dated 2025).

Series [1] deals with T1, human TLR7 (hTLR7) (Homo sapiens, UniProt Q9NYK1).
T1 construct: host or cells: HEK-293 (HEK-Blue hTLR7)
T1 sequence (Q9NYK1 27-1049): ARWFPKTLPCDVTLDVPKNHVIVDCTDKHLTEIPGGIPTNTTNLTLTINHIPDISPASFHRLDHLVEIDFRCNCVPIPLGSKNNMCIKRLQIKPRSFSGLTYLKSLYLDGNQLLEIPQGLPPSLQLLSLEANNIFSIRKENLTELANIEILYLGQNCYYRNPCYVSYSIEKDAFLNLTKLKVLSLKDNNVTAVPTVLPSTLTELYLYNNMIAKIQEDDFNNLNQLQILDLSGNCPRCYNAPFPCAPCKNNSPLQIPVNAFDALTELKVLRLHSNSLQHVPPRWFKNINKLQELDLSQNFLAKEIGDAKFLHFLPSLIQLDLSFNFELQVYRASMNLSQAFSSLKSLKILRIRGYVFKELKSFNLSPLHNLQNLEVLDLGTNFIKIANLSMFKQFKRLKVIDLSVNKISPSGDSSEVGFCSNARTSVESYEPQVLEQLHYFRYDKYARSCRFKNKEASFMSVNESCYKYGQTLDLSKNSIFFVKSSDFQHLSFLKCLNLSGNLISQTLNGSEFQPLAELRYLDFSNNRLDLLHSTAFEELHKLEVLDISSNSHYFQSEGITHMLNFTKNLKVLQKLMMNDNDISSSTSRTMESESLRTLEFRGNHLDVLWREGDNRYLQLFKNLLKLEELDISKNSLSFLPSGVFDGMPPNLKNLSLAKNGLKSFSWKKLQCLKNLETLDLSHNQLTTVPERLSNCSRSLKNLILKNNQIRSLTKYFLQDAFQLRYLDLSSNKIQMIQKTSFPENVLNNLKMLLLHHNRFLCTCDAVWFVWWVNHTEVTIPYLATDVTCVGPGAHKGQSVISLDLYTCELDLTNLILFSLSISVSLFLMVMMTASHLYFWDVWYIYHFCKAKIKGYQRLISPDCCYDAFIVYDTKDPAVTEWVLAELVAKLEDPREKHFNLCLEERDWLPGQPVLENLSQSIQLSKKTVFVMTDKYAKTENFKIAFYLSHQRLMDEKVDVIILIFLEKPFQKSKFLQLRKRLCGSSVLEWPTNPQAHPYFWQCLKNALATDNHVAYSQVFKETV
Nature of the series: In vitro TLR7 activity assay (HEK-Blue hTLR7, QUANTI-Blue, Example 3). Format: cell-based. The note with it: 16 h incubation; Null 1-k subtracted. The method, then: TLR agonist activity was measured in a dose-response study using reporter cell lines expressing the human TLR7 (hTLR7). […] The hTLR7 activity of R848-Toco, the formulation and its components were assessed using HEK-293 cells co-transfected with the hTLR7 gene and an inducible SEAP reporter gene along with the corresponding null control line (HEK-Blue™ hTLR7 and Null-1k cells, Invivogen). Cells were maintained in DMEM media with selective antibiotics according to the manufacturer protocol.^26 HEK-Blue™ cells were seeded into 96 well plates at a density of 220,000 cells/mL with 180 μL/well of culture medium. Stock solutions in DMSO were first serially diluted to seven concentrations (DMSO solutions further diluted into H2O). Each well was stimulated with 20 μL of agonists or agonist-free controls (equivalent concentration of HA-Toco, D-α-Tocopherol succinate, PBS or […] DMSO) at the determined final concentrations in 5 replicates. After 16 h of incubation at 37° C. in a 5% CO2 atmosphere, 20 μL of the supernatant from each well was sampled and spiked into 180 μL of QUANTI-Blue™ solution followed by incubation for 1 h at 37° C. Relative hTLR7 activity was then analyzed by UV-Vis at 637 nm using a microplate UV reader (SpectraMAX GeminiXS, Molecular Devices, San Jose, CA, USA). For each compound and concentration, a corresponding sample was applied to the HEK-Blue™ Null-1k cell line. The TLR7 agonist activity was determined after averaging across hTLR7 replications and subtracting the averaged Null response.
Activation levels were calculated as the difference between the average readings of the hTLR7 cell line and the Null 1-k cell line, to account for non-hTLR7 related induction of NF-κB. […] Therefore, this study confirmed that R848-Toco, formulated with HA-Toco as an emulsion, maintained its TLR agonist activity. […]

The subject of series [2] is mast cell tumors. The note with it: 86 canine patients (7 complete response and 25 partial response); cited from earlier work.
Series [3] has as its system canine PBMCs. As to the kind of experiment: In vitro cytokine secretion assay in canine PBMCs (Example 3). It counts as cell-based. To be noted: 15 hours, ELISA. The text has this: As a TLR7/8 agonist, R848 binds to endosomal TLR7 and 8 receptors located on antigen presenting cells (APCs). The activation of APCs produces pro-inflammatory cytokines including TNF-α, type I IFN and IL-12. These cytokines, together with stimulated APCs that take up tumor antigens, enhance the activation of anti-tumor Th-1 immune responses that involve both CD4^+ T helper cells and CD8^+ cytotoxic T cells.^16 To evaluate the Th-1 associated cytokine production in vitro, isolated canine PBMCs were treated with R848, formulated or unformulated R848-Toco, and the secretion of TNF-α and IL-12 were measured by ELISA as markers of generalized inflammatory response. Canines were chosen as a model over mice because of the greater genetic similarity to humans and more similar immune systems.^46 Peripheral blood from healthy canine donors of 7-10 years age (similar to the age of typical canines with cancer^14) was obtained with appropriate informed consent of the owner. Blood (8 mL per tube) was drawn via sterile venipuncture into a BD Vacutainer cell preparation tube containing sodium heparin (BD Biosciences). PBMCs were isolated within one hour following procurement by density gradient centrifugation according to the manufacturer protocol and resuspended to 3×10^6 cells/mL in sterile RPMI 1640 medium with L-glutamine (Gibco) supplemented with 100 IU/mL penicillin, 100 μg/mL streptomycin (Corning) and 10% (v/v) heat-inactivated Fetalgro (RMBIO). Corning 3917, 96-well tissue culture treated plates were seeded with the PBMC suspension (180 μL/well), 20 μL of the serially diluted R848 samples were added in triplicate and HA-Toco vehicle in duplicate to yield the desired concentrations in a 1% (v/v) DMSO cell suspension. […] Sample cytokine concentrations were determined by interpolation of a four-parameter logistic curve of the recombinant standards using GraphPad Prism 6. […] Cytokine secretion levels were measured by ELISA (Duoset, R&D Systems, Minneapolis, MN, USA) according to the manufacturer protocol.

Series [4] in a line: In vitro release kinetics (dialysis method). It counts as physicochemical. The method, then: Solutions (1 mL) of free R848 in DMSO, R848/HA-Toco in water, R848-Toco in DMSO, and R848-Toco/HA-Toco in water, with a concentration of 1 mg/mL on R848 basis were dialyzed using SnakeSkin® dialysis tubing (MWCO […]) against 30 mL of phosphate buffered saline release medium (PBS, 10 mM sodium phosphate, 137 mM NaCl, pH 7.4) with 0.5% (w/v) polysorbate 80 at 37° C. At predetermined time points, 1 mL aliquots of release medium were sampled and replaced with an equal volume of fresh medium. The samples were kept frozen (−20° C.) until HPLC analysis.
Results: The in vitro release profiles of R848 and R848-Toco from the HA-Toco were studied using a dialysis method. […] The release of parent R848 formulated with HA-Toco was tested in PBS media, with free R848 dissolved in DMSO as a control. Similar release kinetics were observed whether R848 was formulated with HA-Toco or without ([…]), and in both conditions nearly 100% of the agonist was released over 24 h (FIG. 4A).

A short description of series [5]: Hydrolysis of R848-Toco. It counts as physicochemical. The method, then: For hydrolysis, R848-Toco (0.1 mg) was dissolved in 1 mL of DMSO, and the solution was added into 9 mL of hydrolysis media (PBS or 0.5% (w/v) polysorbate 80/PBS). The solution was then rapidly mixed and filtered using a syringe filter (0.22 μm×13 mm, nylon). The filtrate was then incubated at 37° C. under agitation (250 rpm). At predetermined time points, 50 μL of the solution was sampled and analyzed immediately by HPLC.

Series [6] can be described thus: Solubility in water (in words). Format: physicochemical.

Consider `Cc1c(C)c2c(c(C)c1OC(=O)CCC(=O)O)CC[C@@](C)(CCC[C@H](C)CCC[C@H](C)CCCC(C)C)O2` [Toco-succinate, (+)-α-tocopherol succinate], for which the “hTLR7 activation (NF-κB, in words)” value in series [1] was “did not induce any significant activation”.
Regarding `Cc1[nH]c(/C=C2\C(=O)Nc3ccc(F)cc32)c(C)c1C(=O)NCCN1CCCC1.O=P(O)(O)O` [toceranib phosphate], in series [2], the response rate is on record as 37.2%.
Regarding `CCOCc1nc2c(N)nc3ccccc3c2n1CC(C)(C)OC(=O)CCC(=O)Oc1c(C)c(C)c2c(c1C)CC[C@@](C)(CCC[C@H](C)CCC[C@H](C)CCCC(C)C)O2` [Compound R848-Toco], the IL-12 levels entry in series [3] is “lower expression”. Further, the “released over the first 24 h” value in series [4] (0.5% w/v polysorbate 80 solution of PBS) is recorded as 76%. Besides, the “release profile (in words)” value in series [4] (PBS, pH 7.4) was “burst release within the first half hour”. Moreover, the “hTLR7 activation (NF-κB, in words)” value in series [1] is listed as “much less active”. Besides, the “hydrolyzed products observed by HPLC” value in series [5] (hydrolysis sample at 8 h) is reported as “R848, which was the only observed hydrolyzed product”. For the same compound, the “R848-Toco hydrolyzed to R848” value in series [5] (initial 8 h, 37° C.) was 72%. In addition, in series [6], the solubility in water result was “poorly soluble in water”.
